Test results from patent US20110165195A1 (priority 2007, published 2011).

Legend:
[1] = rat, in vivo
[2] = in vivo; details: male, SD, rat, sc, 10 ug/kg
[3] = in vivo; details: male, SD, rat
[4] = in vivo; details: male, SD, rat, iv, 10 ug/kg
[5] = in vivo; details: male, SD, rat; remark: listed apart in the source
[6] = in vivo; details: male, rat
[7] = system: Caco-2 cell line; details: cited from earlier work
[8] = system: rat intestinal tract tissue; details: in vivo; cited from earlier work
[9] = in vivo; details: male, SD, rat, iv, 10 ug/kg; remark: listed apart in the source
[10] = in vivo; details: male, SD, rat; remark: listed apart in the source

Question: With `CC[C@H](C)[C@H](NC(=O)[C@@H]1CCCN1C(=O)[C@@H](NC(=O)[C@@H](N)Cc1ccccc1)C(C)C)C(=O)N[C@@H](Cc1ccccc1)C(=O)N[C@H](C(=O)N[C@@H](Cc1ccc(O)cc1)C(=O)NCC(=O)N[C@@H](CCC(=O)O)C(=O)N[C@@H](CC(C)C)C(=O)N[C@@H](CCC(N)=O)C(=O)N[C@@H](CCCNC(=N)N)C(=O)N[C@@H](CCSC)C(=O)N[C@@H](CCC(N)=O)C(=O)N[C@@H](CCC(=O)O)C(=O)N[C@@H](CCCCN)C(=O)N[C@@H](CCC(=O)O)C(=O)N[C@@H](CCCNC(=N)N)C(=O)N[C@@H](CC(N)=O)C(=O)N[C@@H](CCCCN)C(=O)NCC(=O)N[C@@H](CCC(N)=O)C(=O)O)[C@@H](C)O` [human motilin] as the compound, how does the “BA of human motilin” value [1] read?
Answer: 1.1 ± 0.7%

Question: Which AUC [2] does the source give for `CC[C@H](C)[C@H](NC(=O)[C@H](CCC(=O)O)NC(=O)[C@H](CO)NC(=O)[C@@H](NC(=O)[C@@H](N)CO)C(C)C)C(=O)N[C@@H](CCC(N)=O)C(=O)N[C@@H](CC(C)C)C(=O)N[C@@H](CCSC)C(=O)N[C@@H](Cc1cnc[nH]1)C(=O)N[C@@H](CC(N)=O)C(=O)N[C@@H](CC(C)C)C(=O)NCC(=O)N[C@@H](CCCCN)C(=O)N[C@@H](Cc1cnc[nH]1)C(=O)N[C@@H](CC(C)C)C(=O)N[C@@H](CC(N)=O)C(=O)N[C@@H](CO)C(=O)N[C@@H](CCSC)C(=O)N[C@@H](CCC(=O)O)C(=O)N[C@@H](CCCN=C(N)N)C(=O)N[C@H](C(=O)N[C@@H](CCC(=O)O)C(=O)N[C@@H](Cc1c[nH]c2ccccc12)C(=O)N[C@@H](CC(C)C)C(=O)N[C@@H](CCCN=C(N)N)C(=O)N[C@@H](CCCCN)C(=O)N[C@@H](CCCCN)C(=O)N[C@@H](CC(C)C)C(=O)N[C@@H](CCC(N)=O)C(=O)N[C@@H](CC(=O)O)C(=O)N[C@H](C(=O)N[C@@H](Cc1cnc[nH]1)C(=O)N[C@@H](CC(N)=O)C(=O)N[C@@H](Cc1ccccc1)C(=O)O)C(C)C)C(C)C` [hPTH(1-34)] here?
Answer: 0.827 ng·h/mL

Question: And the Cmax [2]?
Answer: 1.07 ± 0.41 ng/mL

Question: What about the bioavailability [3] of the same compound?
Answer: 0.3 ± 0.1%

Question: And the AUC ([3]; inhaled or intranasal)?
Answer: 0.732 ng·h/mL

Question: And the Cmax ([3]; inhaled or intranasal)?
Answer: 0.67 ± 0.16 ng/mL

Question: What about the AUC [4] of the same compound?
Answer: 3.48 ng·h/mL

Question: What about the Cmax [4] of the same compound?
Answer: 31 ± 1.3 ng/mL

Question: What about the AUC [5] of the same compound?
Answer: 25.6 ng·h/mL

Question: And the Cmax [5]?
Answer: 27.8 ± 15.9 ng/mL

Question: What about the bioavailability ([5]; iv) of the same compound?
Answer: 14.6 ± 10.7%

Question: What about the bioavailability ([6]; Wistar, iv) of the same compound?
Answer: 0.4 ± 0.4%

Question: What about the AUC ([6]; Wister) of the same compound?
Answer: 0.538 ng·h/mL

Question: What about the Cmax ([6]; Wister) of the same compound?
Answer: 0.93 ± 0.8 ng/mL

Question: What does the source list for `CCCCCCCCCC(=O)O` [capric acid]?
Answer: cytotoxicity and tissue damage [7]: exhibits cytotoxicity and causes tissue damage; cytotoxicity and tissue damage [8]: exhibits cytotoxicity and causes tissue damage

Question: With `CCCCCCCC(=O)OC[C@H](NC(=O)[C@H](CO)NC(=O)CN)C(=O)N[C@@H](Cc1ccccc1)C(=O)N[C@@H](CC(C)C)C(=O)N[C@@H](CO)C(=O)N1CCC[C@H]1C(=O)N[C@@H](CCC(=O)O)C(=O)N[C@@H](Cc1cnc[nH]1)C(=O)N[C@@H](CCC(N)=O)C(=O)N[C@@H](CCCNC(=N)N)C(=O)N[C@H](C(=O)N[C@@H](CCC(N)=O)C(=O)N[C@@H](CCC(N)=O)C(=O)N[C@@H](CCCNC(=N)N)C(=O)N[C@@H](CCCCN)C(=O)N[C@@H](CCC(=O)O)C(=O)N[C@@H](CO)C(=O)N[C@@H](CCCCN)C(=O)N[C@@H](CCCCN)C(=O)N1CCC[C@H]1C(=O)N1CCC[C@H]1C(=O)N[C@@H](C)C(=O)N[C@@H](CCCCN)C(=O)N[C@@H](CC(C)C)C(=O)N[C@@H](CCC(N)=O)C(=O)N1CCC[C@H]1C(=O)N[C@@H](CCCNC(=N)N)C(=O)O)C(C)C` [human ghrelin] as the compound, how does the AUC [9] read?
Answer: 3.43 ng·h/mL

Question: And the C0 [9]?
Answer: 40.7 ng/mL

Question: And the AUC [10]?
Answer: 0.533 ng·h/mL

Question: And the Cmax [10]?
Answer: 2.25 ± 2 ng/mL

Question: And the bioavailability [10]?
Answer: 1.6 ± 1.4%
